For 18 compounds, T/C results are on record in PubChem BioAssay AID248 (DTP/NCI, 2004).

Values joined by “and” are separate entries in the source; they are usually repeats but may differ in a detail not shown here. Equal values may be shown once. Toxic doses and inconclusive results are not listed.

This assay has as its system L1210 leukemia ip in BDF1 mice, survival T/C. The assay can be described thus: NCI In Vivo Anticancer Drug Screen. Data for tumor model L1210 Leukemia (intraperitoneal) in B6D2F1 (BDF1) mice. Conditions: endpoint: mean survival time, higher = longer survival. In a few lines:
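In this screen, tumor-bearing mice given compound are compared to those given vehicle, and their survival values are reported as a treated-to-control quotient.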

[1] abbreviates: dose: 100.0 mg/kg/injection, schedule: Q04DX003 (ip), vehicle: saline.
Where [2] appears, read: dose: 200.0 mg/kg/injection, schedule: Q04DX003 (ip), vehicle: saline.
[3] abbreviates: dose: 400.0 mg/kg/injection, schedule: Q04DX003 (ip), vehicle: saline.
Where [4] appears, read: dose: 100.0 mg/kg/injection, schedule: Q04DX002 (ip), vehicle: Klucel (hydroxypropylcellulose) (HPC).
Setting [5] is: dose: 100.0 mg/kg/injection, schedule: Q01DX001 (ip), vehicle: saline.
[6] abbreviates: dose: 200.0 mg/kg/injection, schedule: Q01DX001 (ip), vehicle: saline.
[7] abbreviates: dose: 400.0 mg/kg/injection, schedule: Q01DX001 (ip), vehicle: saline.
[8] abbreviates: dose: 100.0 mg/kg/injection, schedule: Q04DX003 (ip), vehicle: Klucel (hydroxypropylcellulose) (HPC).
[9] abbreviates: dose: 200.0 mg/kg/injection, schedule: Q04DX003 (ip), vehicle: Klucel (hydroxypropylcellulose) (HPC).
The mark [10] stands for this setting: dose: 400.0 mg/kg/injection, schedule: Q04DX003 (ip), vehicle: Klucel (hydroxypropylcellulose) (HPC).
Setting [11] is: dose: 100.0 mg/kg/injection, schedule: Q04DX002 (ip), vehicle: saline.
Where [12] appears, read: dose: 200.0 mg/kg/injection, schedule: Q04DX002 (ip), vehicle: saline.
The mark [13] stands for this setting: dose: 400.0 mg/kg/injection, schedule: Q04DX002 (ip), vehicle: saline.

Turning to `CC(C)c1c[nH]c(=O)[nH]c1=O`, the T/C runs as follows: (dose: 100.0 mg/kg/injection, schedule: Q01DX009 (ip), vehicle: other) 102 % of control; under setting [1], 91 % of control; (dose: 200.0 mg/kg/injection, schedule: Q01DX009 (ip), vehicle: other) 96 % of control; under setting [2], 93 % of control; (dose: 400.0 mg/kg/injection, schedule: Q01DX009 (ip), vehicle: other) 102 % of control; under setting [3], 91 % of control.
`NC(=O)C(Br)CBr` (stereo unspecified): the T/C reads like this: (dose: 25.0 mg/kg/injection, schedule: Q01DX009 (ip), vehicle: saline) 98 % of control; (dose: 50.0 mg/kg/injection, schedule: Q01DX009 (ip), vehicle: saline) 95 % of control; under setting [1], 101 % of control.
With `NNC(=O)CNc1cccc(Cl)c1`, the T/C runs as follows: under setting [4], 101 % of control; (dose: 200.0 mg/kg/injection, schedule: Q04DX002 (ip), vehicle: Klucel (hydroxypropylcellulose) (HPC)) 108 % of control.
For the compound `CCCCCCCCCCCCCCSSCCCCCCCCCCCCCC`, the T/C reads like this: under setting [5], 98 % of control; under setting [6], 92 % of control; under setting [7], 96 % of control.
For the compound `CCCCCCCS(=O)c1nc2ccccc2s1` (stereo unspecified), the T/C (dose: 100.0 mg/kg/injection, schedule: Q04DX002 (ip), vehicle: other) was 104 % of control; the T/C (dose: 200.0 mg/kg/injection, schedule: Q04DX002 (ip), vehicle: other) was 91 % of control; the T/C (dose: 400.0 mg/kg/injection, schedule: Q04DX002 (ip), vehicle: other) was 91 % of control.
Regarding `O=NN(CCCl)C(=O)NC1C=CCCC1` (stereo unspecified), the T/C by setting is: (dose: 9.0 mg/kg/injection, schedule: Q01DX001 (ip), vehicle: other) 117 % of control; (dose: 20.0 mg/kg/injection, schedule: Q01DX001 (ip), vehicle: other) 158 % of control; (dose: 37.0 mg/kg/injection, schedule: Q01DX001 (ip), vehicle: other) 224 % of control; (dose: 50.0 mg/kg/injection, schedule: Q01DX001 (ip), vehicle: other) 175 % of control; (dose: 75.0 mg/kg/injection, schedule: Q01DX001 (ip), vehicle: other) 173 % of control; (dose: 112.0 mg/kg/injection, schedule: Q01DX001 (ip), vehicle: other) 166 % of control.
With `FC1C(F)(F)C(F)(F)C(F)(F)C(F)(F)C1(F)F`, the T/C is 97 % of control (dose: 50.0 mg/kg/injection, schedule: Q01DX001 (ip), vehicle: carboxymethylcellulose (CMC)); 97 % of control (dose: 100.0 mg/kg/injection, schedule: Q01DX001 (ip), vehicle: carboxymethylcellulose (CMC)); 107 % of control (dose: 200.0 mg/kg/injection, schedule: Q01DX001 (ip), vehicle: carboxymethylcellulose (CMC)); 96 % of control (dose: 400.0 mg/kg/injection, schedule: Q01DX001 (ip), vehicle: carboxymethylcellulose (CMC)).
On to `CCCCCCCCCCCCCOc1ccc2ccccc2c1`, for which the T/C by setting is: (dose: 100.0 mg/kg/injection, schedule: Q01DX001 (ip), vehicle: Klucel (hydroxypropylcellulose) (HPC)) 326 % of control; (dose: 200.0 mg/kg/injection, schedule: Q01DX001 (ip), vehicle: Klucel (hydroxypropylcellulose) (HPC)) 165 % of control; (dose: 400.0 mg/kg/injection, schedule: Q01DX001 (ip), vehicle: Klucel (hydroxypropylcellulose) (HPC)) 92 % of control.
With `CC(=O)c1c(C)cc2cc(C)cc(O)c2c1O`, the T/C reads like this: under setting [8], 97 % of control; under setting [9], 101 % of control; under setting [10], 101 % of control.
Take `CCOC(=O)c1c(C)[nH]c(C)c1-c1ccccc1`: the T/C under setting [8] is 112 % of control, the T/C under setting [9] was 104 % of control and the T/C under setting [10] is 105 % of control.
On to `CNC(=O)CCN1CCN(CC/C=C2\c3ccccc3Sc3ccc(Cl)cc32)CC1`, for which the T/C is 95 % of control (dose: 1.56 mg/kg/injection, schedule: Q03HX024 (ip), vehicle: saline); 90 % of control (dose: 2.05 mg/kg/injection, schedule: Q01DX009 (ip), vehicle: saline); 100 % of control (dose: 3.12 mg/kg/injection, schedule: Q03HX024 (ip), vehicle: saline); 94 % of control (dose: 4.1 mg/kg/injection, schedule: Q01DX009 (ip), vehicle: saline); 111 % of control (dose: 8.2 mg/kg/injection, schedule: Q01DX009 (ip), vehicle: saline); 111 % of control (dose: 16.5 mg/kg/injection, schedule: Q01DX009 (ip), vehicle: saline). Further, the T/C reads like this: (dose: 18.75 mg/kg/injection, schedule: Q01DX001 (ip), vehicle: saline) 106 % of control; (dose: 25.0 mg/kg/injection, schedule: Q04DX003 (ip), vehicle: saline) 122 % of control; (dose: 37.5 mg/kg/injection, schedule: Q01DX001 (ip), vehicle: saline) 108 % of control; (dose: 75.0 mg/kg/injection, schedule: Q01DX001 (ip), vehicle: saline) 106 % of control; under setting [1], 114 % of control; (dose: 150.0 mg/kg/injection, schedule: Q01DX001 (ip), vehicle: saline) 106 % of control.
Consider `ClC1=C(Cl)C2(Cl)C3(Cl)C(Cl)=C(Cl)C(Cl)(C34OCCO4)C2(Cl)C12OCCO2` (stereo unspecified), for which the T/C by setting is: (dose: 50.0 mg/kg/injection, schedule: Q01DX001 (ip), vehicle: saline) 107 % of control; under setting [5], 105 % of control; (dose: 100.0 mg/kg/injection, schedule: Q01DX009 (ip), vehicle: saline) 90 % of control; under setting [1], 98 % of control; under setting [6], 94 % of control; (dose: 200.0 mg/kg/injection, schedule: Q01DX009 (ip), vehicle: saline) 93 % of control. The T/C reads like this: under setting [2], 97 % of control; under setting [7], 100 % of control; (dose: 400.0 mg/kg/injection, schedule: Q01DX009 (ip), vehicle: saline) 92 % of control; under setting [3], 103 % of control.
Regarding `CC1CC(=O)C=C(c2ccccc2)O1` (stereo unspecified), the T/C is 101 % of control (dose: 75.0 mg/kg/injection, schedule: Q01DX009 (ip), vehicle: Klucel (hydroxypropylcellulose) (HPC)) and 101 % of control (dose: 150.0 mg/kg/injection, schedule: Q01DX009 (ip), vehicle: Klucel (hydroxypropylcellulose) (HPC)).
As to `CC(C)C1(Br)C(=O)NC(=O)NC1=O`, the T/C (dose: 6.25 mg/kg/injection, schedule: Q01DX009 (ip), vehicle: Klucel (hydroxypropylcellulose) (HPC)) is 103 % of control and the T/C (dose: 12.5 mg/kg/injection, schedule: Q01DX009 (ip), vehicle: Klucel (hydroxypropylcellulose) (HPC)) was 108 % of control.
`C/C=C/C=C\COC(=O)c1ccccc1OCC`: the T/C under setting [11] is 98 % of control and 107 % of control; the T/C under setting [12] was 101 % of control and 109 % of control; the T/C under setting [13] is 109 % of control; the T/C (dose: 800.0 mg/kg/injection, schedule: Q04DX002 (ip), vehicle: saline) is 106 % of control.
In the case of `N#CC1(N(O)C(=O)Nc2ccccc2)CCCCC1`, the T/C runs as follows: under setting [5], 93 % of control; under setting [6], 96 % of control; under setting [7], 91 % of control.
On to `COC1OC2COC(c3ccccc3)OC2C2OC(=S)OC12` (stereo unspecified), for which the T/C is 104 % of control (dose: 25.0 mg/kg/injection, schedule: Q04DX002 (ip), vehicle: Klucel (hydroxypropylcellulose) (HPC)); 97 % of control (dose: 50.0 mg/kg/injection, schedule: Q04DX002 (ip), vehicle: Klucel (hydroxypropylcellulose) (HPC)); 102 % of control under setting [5]; 104 % of control under setting [4]; 93 % of control under setting [11]; 98 % of control under setting [6]. Also, the T/C was 100 % of control under setting [12], 98 % of control under setting [7] and 107 % of control under setting [13].
Regarding `CCOC(=O)CN(CCN(CC)CC)c1ccc([N+](=O)[O-])cc1[N+](=O)[O-]`, the T/C (dose: 100.0 mg/kg/injection, schedule: Q01DX001 (ip), vehicle: other) is 92 % of control; the T/C (dose: 200.0 mg/kg/injection, schedule: Q01DX001 (ip), vehicle: other) is 87 % of control; the T/C (dose: 400.0 mg/kg/injection, schedule: Q01DX001 (ip), vehicle: other) is 100 % of control.
